Consider four compounds from US12290516B2, “Heterocyclic compounds as EphA4 inhibitors” (The Hong Kong University of Science and Technology, priority 2017, dated 2025).

One experiment relates to EphA4. The experiment is described as follows: ephrin-A1-induced EphA4 clustering assay in cultured hippocampal neurons. The format is cell-based. The settings on record: dose of 50 μM. The source says:
FIG. 1. Inhibitory effect of small molecule compounds on EphA4 signaling. Inhibitory activity of 22 selected FDA-approved drugs in ephrin-A1-induced EphA4 clusters in cultured hippocampal neurons. n=4 neuronal cell cultures; *p<0.05 vs. Cont; unpaired Student's t-test.
The inhibitory activity of the 22 drugs listed in Table 1 was examined using an ephrin-A1-induced EphA4 clustering assay in cultured hippocampal neurons.

Experiment [1] deals with T1, extracellular domain of mouse EphA4 (interaction with ephrin-A1) (Mus musculus, UniProt Q03137).
T1 construct: the extracellular domain of mouse EphA4
The experiment is described as follows: Dose-response ELISA of the EphA4/ephrin-A1 interaction. The format is binding. Conditions: read-out: IC50, inhibition of interaction between extracellular domain of mouse EphA4 and ephrin-A1. The source says:
FIG. 3. […] Dose-response curve of nilotinib against the interaction of mouse EphA4 with ephrin-A1.
Nilotinib is a kinase inhibitor that targets the following kinases: BCR-ABL, KIT, LCK, EPHA3, EPHA8, DDR1, DDR2, PDGFRB, MAPK11, and ZAK. Nilotinib is predicted to form hydrogen bonds with Q70 in the D-E loop and T104. It also has hydrophobic interactions with F154, V157, 1163, L166, A193, and V195.

T1 sequence (Q03137 20-547 limits assumed): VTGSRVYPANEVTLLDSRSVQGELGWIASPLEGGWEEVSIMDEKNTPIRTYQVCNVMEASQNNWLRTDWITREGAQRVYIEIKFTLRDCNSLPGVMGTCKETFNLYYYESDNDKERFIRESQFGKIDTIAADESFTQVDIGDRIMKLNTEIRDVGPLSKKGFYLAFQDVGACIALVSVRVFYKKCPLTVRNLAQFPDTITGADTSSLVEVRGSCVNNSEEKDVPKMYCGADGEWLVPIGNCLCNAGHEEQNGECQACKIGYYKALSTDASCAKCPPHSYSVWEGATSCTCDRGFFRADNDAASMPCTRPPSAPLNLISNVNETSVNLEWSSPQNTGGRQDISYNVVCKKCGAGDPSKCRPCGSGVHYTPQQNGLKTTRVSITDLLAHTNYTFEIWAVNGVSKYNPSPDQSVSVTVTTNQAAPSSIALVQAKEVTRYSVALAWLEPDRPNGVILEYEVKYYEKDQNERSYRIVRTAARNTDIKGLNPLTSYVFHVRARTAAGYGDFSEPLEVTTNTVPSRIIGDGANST

In the case of `CN1CCC(=C2c3ccccc3C=Cc3ccccc32)CC1` [Cyproheptadine], the “inhibition of ephrin-A1-induced EphA4 clustering” value (“inhibition” below) with EphA4 is reported as 30%.

Consider Retapamulin, for which the “inhibition” value in the experiment with EphA4 is 30%.

Take `C[C@]12CC[C@H](O)CC1=CC[C@@H]1[C@@H]2CC[C@]2(C)C(c3cccnc3)=CC[C@@H]12` [abiraterone]: the “inhibition” value in the experiment on EphA4 amounted to 30%.

For `Cc1cn(-c2cc(NC(=O)c3ccc(C)c(Nc4nccc(-c5cccnc5)n4)c3)cc(C(F)(F)F)c2)cn1` [Nilotinib], the IC50 in experiment [1] was determined as 70.7 µM. In addition, the “inhibition” value with EphA4 amounted to 30%.
